In US8163737B2 (Vertex Pharmaceuticals Incorporated, priority 2006, dated 2012) one finds IC50 data, which are given here for 54 compounds.

Sequence of endogenous CGRP receptor (Q16602 23-461): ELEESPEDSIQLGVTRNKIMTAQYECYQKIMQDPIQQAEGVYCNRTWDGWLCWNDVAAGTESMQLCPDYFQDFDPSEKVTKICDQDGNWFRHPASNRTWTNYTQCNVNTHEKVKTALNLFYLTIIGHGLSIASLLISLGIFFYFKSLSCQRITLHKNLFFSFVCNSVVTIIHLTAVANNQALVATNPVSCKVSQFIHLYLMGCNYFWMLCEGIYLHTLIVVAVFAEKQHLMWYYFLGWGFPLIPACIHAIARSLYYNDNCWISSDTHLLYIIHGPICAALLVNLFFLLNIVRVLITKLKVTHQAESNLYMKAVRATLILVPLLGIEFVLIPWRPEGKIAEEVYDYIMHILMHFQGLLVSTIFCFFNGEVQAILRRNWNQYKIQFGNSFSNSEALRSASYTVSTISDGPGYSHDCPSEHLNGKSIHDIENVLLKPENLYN
Sequence of endogenous CGRP receptor (O60894 27-148): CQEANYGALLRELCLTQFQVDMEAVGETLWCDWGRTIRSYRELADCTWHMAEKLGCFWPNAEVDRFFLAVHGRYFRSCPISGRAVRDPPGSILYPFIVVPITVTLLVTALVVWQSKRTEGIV

The experiment has as its target endogenous CGRP receptor (Homo sapiens, UniProt O60894+Q16602). Kind of experiment: CGRP functional antagonism using SK-N-MC-BLA (4C10), β-lactamase transcriptional reporter assay. It counts as cell-based. As to conditions: SK-N-MC (4C10) cells, inhibition of β-lactamase expression in the presence of 200 pM CGRP. The text has this:
Measuring CGRP Functional Antagonism Using SK-N-MC-BLA (4C10):
CGRP functional antagonism was characterized in a cell based transcriptional assay using a recombinant SK-N-MC line. To introduce the transcriptional reporter system, SK-N-MC cell line was transduced with a retroviral vector containing β-lactamase gene downstream of cAMP responsive promoter. The expression of β-lactamase is triggered by cAMP increase that is a downstream event of activation of endogenous CGRP receptor. Single clones were separated using Fluorescent Activated Cell Sorting (FACS) based on CGRP induced β-lactamase activity. β-lactamase activity was measured using a fluorescence energy transfer (FRET) dye, CCF4. […] To evaluate functional antagonist activity of compounds in SK-N-MC (4C10) line, compounds were evaluated for their inhibition of β-lactamase expression in the presence of CGRP.
SK-N-MC (4C10) was cultured in Minimal Essential Media (MEM) (Invitrogen) supplemented with 1 mM non-essential amino acids solution (Invitrogen), 100 units/ml Penicillin-Streptomycin (Invitrogen), 1 mM sodium pyruvate (Invitrogen) and 10% fetal bovine serum. For the β-lactamase assay, low serum, 1% FBS in MEM was used. 30,000 cells were plated into each wells of poly-D-lysine coated 384-well plate (Becton Dickinson) a day prior to the assay. SK-N-MC (4C10) was preincubated with compounds for 30 min before the addition of 200 pM CGRP. The assay was incubated for 3 hours at 37° C. to allow β-lactamase expression. CCF4 dye was added and incubated for 2 hours at room temperature. […] Curve fitting and IC50 calculation were carried about using MOD3.
Consider `COC(=O)[C@H](CC1CCCCC1)N1C(=O)C(CC(=O)N2CCC(N3Cc4ccccc4NC3=O)CC2)SC1c1ccccc1` (stereo partly drawn) [Compound 55], for which the IC50 was 1000 to 5000 nM.

On to `CC(C)(C)CCN1C(=O)[C@H](CC(=O)N2CCC(O)(c3ccc(F)cc3)CC2)S[C@@H]1c1cccc(F)c1N1CCN(C(C)(C)C)CC1` [Compound 453], for which the IC50 is less than 1000 nM.

`CN1CCN(c2c(F)cccc2C2SC(CC(=O)N3CCC(n4c(=O)[nH]c5ccccc54)CC3)C(=O)N2CCC(C)(C)C)CC1` (stereo not drawn) [Compound 338]: the IC50 was less than 1000 nM.

For the compound `CC(C)CCN1C(=O)C(CC(=O)N2CCC(N3C(=O)Cc4ccccc43)CC2)SC1c1ccccc1` (stereo not drawn) [Compound 270], the IC50 is more than 5000 nM.

Turning to `Cc1cccc(C)c1C1SC(CC(=O)N2CCC(N3Cc4ccccc4NC3=O)CC2)C(=O)N1CCC(C)C` (stereo not drawn) [Compound 134], the IC50 is less than 1000 nM.

In the case of `O=C(CC1SC(c2ccccc2)N(Cc2ccncc2)C1=O)N1CCC(N2Cc3ccccc3NC2=O)CC1` (stereo not drawn) [Compound 46], the half-maximal inhibitory concentration (IC50) fell in the range of 1000 to 5000 nM.

For `CC(C)(C)CCN1C(=O)C(CC(=O)N2CCC(N3Cc4ccccc4NC3=O)CC2)SC1c1ccc(F)cc1F` (stereo not drawn) [Compound 234], the IC50 is less than 1000 nM.

As for `CC(C)CCN1C(=O)C(CC(=O)N2CCC(N3Cc4ccccc4NC3=O)CC2)SC1CCc1ccccc1` (stereo not drawn) [Compound 6], the IC50 was less than 1000 nM.

Take `CC(C)CCN1C(=O)C(CC(=O)N2CCC(N3Cc4ccccc4NC3=O)CC2)SC1C(C)(C)C` (stereo not drawn) [Compound 75]: the IC50 fell in the range of 1000 to 5000 nM.

In the case of `CC(C)CCN1C(=O)C(CC(=O)N2CCC(N3Cc4ccccc4NC3=O)CC2)SC1c1ccc(N(C)C)cc1` (stereo not drawn) [Compound 124], the IC50 lay in the range of 1000 to 5000 nM.

Turning to `CCCOc1ccc(C2SC(CC(=O)N3CCC(N4Cc5ccccc5NC4=O)CC3)C(=O)N2CCC(C)C)cc1` (stereo not drawn) [Compound 103], the IC50 is more than 5000 nM.

Regarding `CC(C)(C)CCN1C(=O)C(CC(=O)N2CCC(N3CCc4ccccc4NC3=O)CC2)SC1c1c[nH]cn1` (stereo not drawn) [Compound 313], the IC50 is less than 1000 nM.

Consider `CC(C)(C)CCN1C(=O)C(CC(=O)N2CCC(n3c(=O)[nH]c4ncccc43)CC2)SC1c1cccc(F)c1N1CCN(C2CC2)CC1` (stereo not drawn) [Compound 390], for which the half-inhibitory concentration (IC50) was more than 5000 nM.

On to `O=C(CC1SC(c2ccc(F)cc2F)N(CC2CCCCC2)C1=O)N1CCC(N2CCc3ccccc3NC2=O)CC1` (stereo not drawn) [Compound 135], for which the IC50 is less than 1000 nM.

Consider `CC(C)CCN1C(=O)C(CC(=O)N2CCC(n3c(=O)[nH]c4ccccc43)CC2)SC1c1ccccc1N1CCOCC1` (stereo not drawn) [Compound 294], for which the IC50 was less than 1000 nM.

For `CC(C)(C)CCN1C(=O)C(CC(=O)N2CCC(N3CCc4ccccc4NC3=O)CC2)SC1c1ccccc1N1CCN(CCO)CC1` (stereo not drawn) [Compound 372], the IC50 was more than 5000 nM.

For the compound `O=C(CC1SC(C2CCCCC2)N(c2ccc(N3CCOCC3)cc2)C1=O)N1CCC(N2CCc3ccccc3NC2=O)CC1` (stereo not drawn) [Compound 421], the IC50 was less than 1000 nM.

With `CCC(CC)C1SC(CC(=O)N2CCC(N3Cc4ccccc4NC3=O)CC2)C(=O)N1CCC(C)C` (stereo not drawn) [Compound 151], the IC50 was less than 1000 nM.

As for `O=C(CC1SC(c2ccccc2)N(CC(F)(F)C(F)(F)F)C1=O)N1CCC(N2CCc3ccccc3NC2=O)CC1` (stereo not drawn) [Compound 233], the half-maximal inhibitory concentration (IC50) is less than 1000 nM.

For `CC(C)CCN1C(=O)C(CC(=O)N2CCC(N3CCc4ccccc4NC3=O)CC2)SC1c1cccnc1N1CCOCC1` (stereo not drawn) [Compound 125], the IC50 is less than 1000 nM.

`CCC1SC(CC(=O)N2CCC(n3c(=O)[nH]c4ccccc43)CC2)C(=O)N1CC(F)(F)F` (stereo not drawn) [Compound 218]: the half-maximal inhibitory concentration (IC50) is more than 5000 nM.

For the compound `CCC1SC(CC(=O)N2CCC(n3cc(-c4ccccc4)[nH]c3=O)CC2)C(=O)N1CC1CC1` (stereo not drawn) [Compound 146], the IC50 was more than 5000 nM.

In the case of `CC1=CCCC(C)C1C1SC(CC(=O)N2CCC(N3Cc4ccccc4NC3=O)CC2)C(=O)N1CCC(C)C` (stereo not drawn) [Compound 100], the IC50 was less than 1000 nM.

With `O=C(CC1SC(c2ccccc2)N(CC(F)(F)C(F)(F)F)C1=O)N1CCC(N2Cc3ccccc3NC2=O)CC1` (stereo not drawn) [Compound 36], the IC50 is less than 1000 nM.

`O=C(CC1SC(c2ccccc2)N(CCC(F)(F)F)C1=O)N1CCC(N2CCc3ccccc3NC2=O)CC1` (stereo not drawn) [Compound 280]: the IC50 is less than 1000 nM.

Take `CN1CCN(c2ccccc2C2SC(CC(=O)N3CCC(CO)CC3)C(=O)N2CCC(C)(C)C)CC1` (stereo not drawn) [Compound 85]: the IC50 is more than 5000 nM.

With `CC(C)(C)CCN1C(=O)C(CC(=O)N2CCC(N3Cc4ccccc4NC3=O)CC2)SC1c1ccccc1F` (stereo not drawn) [Compound 252], the IC50 was less than 1000 nM.

Consider `CC(C)(C)CCN1C(=O)C(CC(=O)N2CCC(N3Cc4ccccc4NC3=O)CC2)SC1(C)c1ccccc1` (stereo not drawn) [Compound 312], for which the IC50 was less than 1000 nM.

For `O=C(CC1SC(C2CCCCC2)N(c2ccccc2)C1=O)N1CCC(n2c(=O)[nH]c3ncccc32)CC1` (stereo not drawn) [Compound 424], the IC50 is less than 1000 nM.

Consider `CC(C)N1CCN(c2ncccc2C2S[C@@H](CC(=O)N3CCC(n4c(=O)[nH]c5ncccc54)CC3)C(=O)N2CCC(C)(C)C)CC1` (stereo partly drawn) [Compound 443], for which the IC50 was less than 1000 nM.

Consider `Cc1ccc(C2SC(CC(=O)N3CCC(N4Cc5ccccc5NC4=O)CC3)C(=O)N2CCC(C)C)c(C)c1` (stereo not drawn) [Compound 222], for which the IC50 is less than 1000 nM.

Take `CC(C)CCN1C(=O)C(CC(=O)N2CCC(N3Cc4ccccc4NC3=O)CC2)SC12CCCCCC2` (stereo not drawn) [Compound 32]: the IC50 was less than 1000 nM.

In the case of `CC(C)CCN1C(=O)C(CC(=O)N2CCC(N3CCc4ccccc4NC3=O)CC2)SC1c1ccc(F)c(F)c1` (stereo not drawn) [Compound 155], the IC50 is less than 1000 nM.

For the compound `CC(C)(C)CCN1C(=O)[C@H](CC(=O)N2CCC(n3c(=O)[nH]c4ncccc43)CC2)S[C@H]1c1cccc(F)c1N1CCC(N)C1` (stereo partly drawn) [Compound 465], the IC50 lay within 1000 to 5000 nM.

Take `CC(C)(C)CCN1C(=O)C(CC(=O)N2CCC(n3c(=O)[nH]c4ccccc43)CC2)SC12c1ccccc1-c1ccccc12` (stereo not drawn) [Compound 311]: the IC50 is 1000 to 5000 nM.

For `C[C@@H]1CN(c2c(F)cccc2[C@@H]2S[C@@H](CC(=O)N3CCC(N4CCc5ccccc5NC4=O)CC3)C(=O)N2CCC(C)(C)C)C[C@H](C)N1` [Compound 476], the IC50 was more than 5000 nM.

For the compound `CN(c1ccccc1C1SC(CC(=O)N2CCC(n3c(=O)[nH]c4ncccc43)CC2)C(=O)N1CCC(C)(C)C)[C@@H]1CCN(Cc2ccccc2)C1` (stereo partly drawn) [Compound 408], the IC50 was less than 1000 nM.

`CC(=O)N1CCC2(CCN(C(=O)CC3SC(c4ccccc4)N(CCC(C)C)C3=O)CC2)c2ccccc21` (stereo not drawn) [Compound 157]: the IC50 is more than 5000 nM.

With `CC(C)(C)CCN1C(=O)[C@H](CC(=O)N2CCC(N3Cc4ccccc4NC3=O)CC2)SC1c1cccc(F)c1N1CCC(N)C1` (stereo partly drawn) [Compound 467], the IC50 was 1000 to 5000 nM.

For `O=C(CC1SC(c2ccccc2)N(CC2CC2)C1=O)N1CCC(N2CCc3ccccc3NC2=O)CC1` (stereo not drawn) [Compound 138], the IC50 is less than 1000 nM.

With `CN1CCN(c2ccccc2[C@@H]2S[C@H](CC(=O)N3CCC(N4CCc5ccccc5NC4=O)CC3)C(=O)N2CCC(C)(C)C)CC1` [Compound 388], the IC50 was more than 5000 nM.

On to `O=C(CC1SC(c2ccccc2)N(Cc2ccncc2)C1=O)N1CCC(n2c(=O)[nH]c3ccccc32)CC1` (stereo not drawn) [Compound 108], for which the IC50 was more than 5000 nM.

With `CC(C)N1CCN(c2c(F)cccc2[C@H]2S[C@@H](CC(=O)N3CCC(N4CCc5ccccc5NC4=O)CC3)C(=O)N2CCC(C)(C)C)CC1` [Compound 396], the concentration for half-maximal inhibition (IC50) was in the range of 1000 to 5000 nM.

Take `O=C(CC1SC(c2ccccc2)N(Cc2cccnc2)C1=O)N1CCC(N2CCc3ccccc3NC2=O)CC1` (stereo not drawn) [Compound 185]: the IC50 is less than 1000 nM.

As for `Cc1c(F)cccc1C1SC(CC(=O)N2CCC(N3Cc4ccccc4NC3=O)CC2)C(=O)N1CCC(C)C` (stereo not drawn) [Compound 267], the IC50 was less than 1000 nM.

As to `Cc1cc(C2SC(CC(=O)N3CCC(N4Cc5ccccc5NC4=O)CC3)C(=O)N2CCC(C)(C)C)cc2cn[nH]c12` (stereo not drawn) [Compound 179], the IC50 is less than 1000 nM.

Regarding `CC(C)CCN1C(=O)C(CC(=O)N2CCC(N3CCc4ccccc4NC3=O)CC2)SC1C1CCOCC1` (stereo not drawn) [Compound 258], the IC50 lay in the range of 1000 to 5000 nM.

Turning to `CC(C)CCN1C(=O)C(CC(=O)N2CCC(n3cc(-c4ccccc4)[nH]c3=O)CC2)SC1c1ccc(Cl)cc1` (stereo not drawn) [Compound 112], the IC50 was more than 5000 nM.

Take `CC(C)N1CCN(c2c(F)cccc2[C@@H]2S[C@@H](CC(=O)N3CCC(N4CCc5ccccc5NC4=O)CC3)C(=O)N2CCC(C)(C)C)CC1` [Compound 395]: the IC50 is more than 5000 nM.

Take `CC(C)(C)CCN1C(=O)C(CC(=O)N2CCC(N3Cc4ccccc4NC3=O)CC2)SC1c1cccc2cc[nH]c12` (stereo not drawn) [Compound 94]: the IC50 is more than 5000 nM.

For `CN1CCCN(c2ccccc2C2SC(CC(=O)N3CCC(N4CCc5ccccc5NC4=O)CC3)C(=O)N2CCC(C)(C)C)CC1` (stereo not drawn) [Compound 370], the IC50 was less than 1000 nM.

`CC(C)N1CCN(c2c(F)cccc2C2S[C@@](C)(CC(=O)N3CCC(n4c(=O)[nH]c5ncccc54)CC3)C(=O)N2CCC(C)(C)C)CC1` (stereo partly drawn) [Compound 445]: the IC50 lay in the range of 1000 to 5000 nM.

`CN1CCN(c2ccccc2C2SC(CC(=O)N3CCC(N4Cc5cccnc5NC4=O)CC3)C(=O)N2CCC(C)(C)C)CC1` (stereo not drawn) [Compound 320]: the IC50 was less than 1000 nM.

For `CC(C)CCN1C(=O)C(CC(=O)N2CCC3(CC2)C(=O)N(C)c2ccccc23)SC1c1ccccc1` (stereo not drawn) [Compound 29], the IC50 is more than 5000 nM.
